Laboratory results taken from patent US4759917A, “Oxidative dissolution of gallium arsenide and separation of gallium from arsenic” (priority 1987, dated 1988).

Test: Viscosity of hydroxamic acids
Assay type: physicochemical
Conditions: neat, without a solvent
Source text: When a liquid hydroxamic acid compound is used, it can be used neat as the organic phase in the oxidation-dissolution reaction and the subsequent extraction-separation. However it will often be preferable to use an organic solvent as an extender, or to lower viscosity or lessen absorption or resulting losses of the hydroxamic acid, or to promote phase separation, and the organic phase often includes a liquid hydrocarbon solvent. Such solvent must be substantially water immiscible so as to be separable from the aqueous solutions containing the arsenic values. Suitable solvents include aliphatic and aromatic hydrocarbons such as kerosene, hexane, toluene, methylene chloride, chloroform, carbon tetrachloride, xylene, naphtha, cyclohexane, Chevron Ion Exchange solvent, Kermac 470-B. Solvesso 100 and the like. Kerosene and other low viscosity, high flash point petrolleum distillates are preferred. Generally, the hydroxamic compounds will be present in the organic phase in an amount of at least about 2% by weight. Preferably, the N-alkyl alkanohydroxamic compound will be present in the amount of 2 to 40%, more preferably about 10 to 35%, by weight based on the total organic phase. Viscosity and/or solubility serves to fix the upper limit of the content of said hydroxamic compound which will depend upon the structure of the compound employed. […]

N-methyl isostearohydroxamic acid
viscosity: sufficiently low viscosity that they can be used neat
